# Results: patent US8399515B2, “Five and fifteen carbon fatty acids for treating metabolic disorders and as nutritional supplements” (Baylor Research Institute, priority 2003, dated 2013)
# “And” between values parts separate entries of the source, which are not always exact repeats. Identical values can stand only once.
# Experiments:
# [1] = test system: fibroblasts from patients with Very-long-chain acyl-CoA dehydrogenase (VLCAD) deficiency, severe cardiac form; assay: Propionylcarnitine from oxidation of odd-carbon fatty acids in VLCAD (cardiac) fibroblasts; type: cell-based, human
# Description: (§1) Fibroblasts obtained from patients with inherited defects of mitochondrial fat oxidation were cultured in the presence of omega deuterated odd-carbon numbered fatty acids, as described in Roe, C. R., Sweetman, L., Roe, D. S., David, F., Brunengraber, H., “Effective Dietary Treatment of Cardiomyopathy & Rhabdomyolysis in Long-Chain Fat Oxidation Disorders using an Anaplerotic Odd-Chain Triglyceride,” J. Clin. Invest. 110 (2): 259-269 (2002).
# (§2) The data in Table 1 represents testing of cultured fibroblasts derived from ten patients afflicted with Very-long-chain acyl-CoA dehydrogenase (VLCAD) deficiency (six patients with the severe cardiac form and four with the non-cardiac milder phenotype), two patients with Mitochondrial Trifunctional Protein (MTP) deficiency, five patients having L-3-hydroxy-acyl-CoA dehydrogenase (LCHAD) deficiency and three patients with Short-chain acyl-CoA dehydrogenase (SCAD) deficiency.
# [2] = test system: fibroblasts from patients with VLCAD deficiency, non-cardiac milder phenotype; assay: Propionylcarnitine from oxidation of odd-carbon fatty acids in VLCAD (non-cardiac) fibroblasts; type: cell-based, human
# Description: as §1, §2
# [3] = test system: fibroblasts from patients with Mitochondrial Trifunctional Protein (MTP) deficiency; assay: Propionylcarnitine from oxidation of odd-carbon fatty acids in MTP fibroblasts; type: cell-based, human
# Description: as §1, §2
# [4] = test system: fibroblasts from patients with L-3-hydroxy-acyl-CoA dehydrogenase (LCHAD) deficiency; assay: Propionylcarnitine from oxidation of odd-carbon fatty acids in LCHAD fibroblasts; type: cell-based, human
# Description: as §1, §2
# [5] = test system: fibroblasts from patients with Short-chain acyl-CoA dehydrogenase (SCAD) deficiency; assay: Propionylcarnitine from oxidation of odd-carbon fatty acids in SCAD fibroblasts; type: cell-based, human
# Description: as §1, §2
# [6] = test system: MCAD-deficient fibroblasts; assay: Fate of odd-carbon fatty acids in MCAD-deficient fibroblasts; type: cell-based, human
# Description: as §1
# Fibroblasts from four patients with MCAD deficiency and one heterozygote (carrier) indicate that odd-carbon fatty acids containing more than seven carbons can not be effectively used in that disease. […]
# [7] = test system: control / normal fibroblasts; assay: Fate of odd-carbon fatty acids in control (normal) fibroblasts; type: cell-based, human; conditions: NORMAL fibroblasts
# Description: Fibroblasts obtained from patients with inherited defects of mitochondrial fat oxidation were cultured in the presence of omega deuterated odd-carbon numbered fatty acids, as described in Roe, C. R., Sweetman, L., Roe, D. S., David, F., Brunengraber, H., “Effective Dietary Treatment of Cardiomyopathy & Rhabdomyolysis in Long-Chain Fat Oxidation Disorders using an Anaplerotic Odd-Chain Triglyceride,” J. Clin. Invest. 110 (2): 259-269 (2002). […]
# VLCAD patient = assay: Meal test with triheptanoin or tripentanoin in a VLCAD patient; type: in vivo, human; design: Myristenoylcarnitine Level: unit not given here; conditions: for Myristenoylcarnitine Level / Propionylcarnitine Level: blood
# From the text: (§3) A VLCAD patient and an SCAD patient, both of whom had gastrostomy sites for enteral administration, each were provided with separate meals containing equimolar amounts of triheptanoin (C7) and tripentanoin (C5) at different times on the same day. Each patient was given the amount in 1 of 4 daily meals equivalent to a diet of 3 gms/Kg/day or about 30% of total Kcal as the triglyceride. Serial blood samples were obtained hourly and individual urines were collected at baseline and during the meal.
# (§4) The patient with VLCAD (FIG. 3) was monitored over a 3 hour interval and the SCAD patient was monitored for 4 hours after beginning the meal. […] One way the VLCAD patient was monitored was for myristenoylcamitine (cis-5-C14:1), which reflects oxidation of oleate and is therefore an indication of ongoing lipolysis during the meal tests (it is not derived from either C7 or C5). […] These changes are not observed with even-carbon triglycerides.
# SCAD patient = assay: Meal test with triheptanoin or tripentanoin in a SCAD patient; type: in vivo, human
# From the text: as §3, §4
# The second patient with SCAD deficiency (FIG. 4) had been receiving the triheptanoin diet for more than 2 years. This disorder is due to an inherited deficiency of butyryl-CoA dehydrogenase (SCAD) and is known to oxidize even carbon fatty acids of 4-6 carbon chain length.
# In FIG. 4, C7-C3 represents the blood levels of C3 derived from C7; and C5-C3 represents the blood levels of C3 derived from C5, C7-C5 represents blood levels of pentanoylcarnitine (C5) derived from C7 meals and C5-C5 represents blood levels of pentanoylcarnitine (C5) derived from C5 meals. […] C7-C4 and C5-C4 represent the levels of the disease-specific acylcarnitine (butyrylcarnitine [C4]) observed in SCAD deficiency. […] This increased quantity of C3 corresponds to those observed for SCAD deficiency in the fibroblast studies above shown in Table 1.
# [8] = test system: fibroblasts from patients with inherited defects of mitochondrial fat oxidation; assay: Propionylcarnitine production in all fat-oxidation-defective fibroblast cell lines (comparison in words); type: cell-based, human; conditions: all VLCAD, MTP, LCHAD, SCAD cell lines; C5 versus C7; C15 versus C5 or C7
# Description: as §1, §2
# [9] = VLCAD cardiac fibroblasts, one line per patient
# [10] = average over VLCAD cardiac cell lines
# [11] = VLCAD non-cardiac fibroblasts, one line per patient
# [12] = average over VLCAD non-cardiac cell lines
# [13] = MTP fibroblasts, one line per patient
# [14] = LCHAD fibroblasts, one line per patient
# [15] = SCAD fibroblasts, one line per patient
structure (smiles),measurement,setting,value
"CCCCC(=O)O [C5, n-pentanoic acid]",Ratio: C5/C7 (propionylcarnitine),[1]; [9],1.6 (2×) and 2.1 and 1.5 and 1.7 and 2.0
same,Ratio: C5/C15 (propionylcarnitine),[1]; [9],4.0 and 5.2 and 3.1 and 3.5 and 5.3 and 5.1
same,Propionylcarnitine from oxidation of fatty acid,"[1]; VLCAD cardiac fibroblasts, one line per patient, 72 hours incubation",47.0 nmol/mg Protein/72 hours and 27.2 nmol/mg Protein/72 hours and 67.8 nmol/mg Protein/72 hours and 28.2 nmol/mg Protein/72 hours and 34.7 nmol/mg Protein/72 hours and 50.6 nmol/mg Protein/72 hours
same,AVG. Ratio: C5/C7,[1]; [10],AVG. 1.8
same,AVG. Ratio: C5/C15,[1]; [10],AVG. 4.4
same,Ratio: C5/C7 (propionylcarnitine),[2]; [11],2.0 and 1.4 (2×) and 2.1
same,Ratio: C5/C15 (propionylcarnitine),[2]; [11],2.7 and 1.5 and 1.4 and 1.7
same,Propionylcarnitine from oxidation of fatty acid,"[2]; VLCAD non-cardiac fibroblasts, one line per patient, 72 hours incubation",44.4 nmol/mg Protein/72 hours and 28.3 nmol/mg Protein/72 hours and 51.8 nmol/mg Protein/72 hours and 19.7 nmol/mg Protein/72 hours
same,AVG. Ratio: C5/C7,[2]; [12],AVG. 1.7
same,AVG. Ratio: C5/C15,[2]; [12],AVG. 1.8
same,Ratio: C5/C7 (propionylcarnitine),[3]; [13],1.6 and 1.3
same,Ratio: C5/C15 (propionylcarnitine),[3]; [13],1.2 and 1.4
same,Propionylcarnitine from oxidation of fatty acid,"[3]; MTP fibroblasts, one line per patient, 72 hours incubation",38.3 nmol/mg Protein/72 hours and 63.6 nmol/mg Protein/72 hours
same,AVG. Ratio: C5/C7,[3]; average over MTP cell lines,AVG. 1.5
same,AVG. Ratio: C5/C15,[3]; average over MTP cell lines,AVG. 1.3
same,Ratio: C5/C7 (propionylcarnitine),[4]; [14],1.2 and 1.5 (2×) and 2.3 and 1.6
same,Ratio: C5/C15 (propionylcarnitine),[4]; [14],1.9 and 2.3 and 2.2 and 3.5 and 2.6
same,Propionylcarnitine from oxidation of fatty acid,"[4]; LCHAD fibroblasts, one line per patient, 72 hours incubation",65.4 nmol/mg Protein/72 hours and 34.5 nmol/mg Protein/72 hours and 35.0 nmol/mg Protein/72 hours and 24.4 nmol/mg Protein/72 hours and 36.8 nmol/mg Protein/72 hours
same,AVG. Ratio: C5/C7,[4]; average over LCHAD cell lines,AVG. 1.6
same,AVG. Ratio: C5/C15,[4]; average over LCHAD cell lines,AVG. 2.5
same,Ratio: C5/C7 (propionylcarnitine),[5]; [15],1.4 (2×) and 1.2
same,Ratio: C5/C15 (propionylcarnitine),[5]; [15],1.4 (2×) and 1.3
same,Propionylcarnitine from oxidation of fatty acid,"[5]; SCAD fibroblasts, one line per patient, 72 hours incubation",80.2 nmol/mg Protein/72 hours and 43.6 nmol/mg Protein/72 hours and 48.2 nmol/mg Protein/72 hours
same,AVG. Ratio: C5/C7,[5]; average over SCAD cell lines,AVG. 1.3
same,AVG. Ratio: C5/C15,[5]; average over SCAD cell lines,AVG. 1.4
same,Propionyl-CoA produced in culture (in words),"[6]; MCAD 1 and MCAD 2 cell lines, compared with normal",normal or greater than normal
same,Propionylcarnitine from odd carbon precursor,[6]; MCAD-1 fibroblast cell line,25.8 nmol/mg Protein/72 hours
same,Propionylcarnitine from odd carbon precursor,[6]; MCAD-2 fibroblast cell line,58.5 nmol/mg Protein/72 hours
same,Propionylcarnitine from odd carbon precursor,[7],25.8 nmol/mg Protein/72 hours
same,Myristenoylcarnitine Level,"VLCAD patient; time 0 hours, cis-5-C14:1, marker of lipolysis",3.07
same,Propionylcarnitine Level,"VLCAD patient; time 0 hours, enteral meal via gastrostomy",1.38
same,Myristenoylcarnitine Level,VLCAD patient; time 1 hours,2.89
same,Propionylcarnitine Level,VLCAD patient; time 1 hours,3.15
same,Myristenoylcarnitine Level,VLCAD patient; time 2 hours,2.04
same,Propionylcarnitine Level,VLCAD patient; time 2 hours,3.51
same,Myristenoylcarnitine Level,VLCAD patient; time 3 hours,3.39
same,Propionylcarnitine Level,VLCAD patient; time 3 hours,5.63
same,Clinical or biochemical toxicity,"VLCAD patient; meal test, 3 hour interval",no clinical or biochemical toxicity
same,"Amount of C3 produced following the meal, C5 compared with C7",SCAD patient,significantly greater
same,Limitation in oxidation of the meal triglyceride,SCAD patient,no limitation in oxidation
same,Change in C4 (butyrylcarnitine) during the meal,SCAD patient; C4 already at very low levels,no significant decrease in C4
same,Clinical or biochemical toxicity,"SCAD patient; meal test, 4 hours",no clinical or biochemical toxicity
same,Relative Blood Levels of Fatty Acid Chain Lengths: C3,SCAD patient; time 0 hours,2.61
same,Relative Blood Levels of Fatty Acid Chain Lengths: C4 (butyrylcarnitine),SCAD patient; time 0 hours,0.30
same,Relative Blood Levels of Fatty Acid Chain Lengths: C3,SCAD patient; time 1 hours,2.78
same,Relative Blood Levels of Fatty Acid Chain Lengths: C4 (butyrylcarnitine),SCAD patient; time 1 hours,0.26
same,Relative Blood Levels of Fatty Acid Chain Lengths: C3,SCAD patient; time 2 hours,3.19
same,Relative Blood Levels of Fatty Acid Chain Lengths: C4 (butyrylcarnitine),SCAD patient; time 2 hours,0.27
same,Relative Blood Levels of Fatty Acid Chain Lengths: C3,SCAD patient; time 3 hours,3.73
same,Relative Blood Levels of Fatty Acid Chain Lengths: C4 (butyrylcarnitine),SCAD patient; time 3 hours,0.30
same,Relative Blood Levels of Fatty Acid Chain Lengths: C3,SCAD patient; time 4 hours,4.99
same,Relative Blood Levels of Fatty Acid Chain Lengths: C4 (butyrylcarnitine),SCAD patient; time 4 hours,0.27
same,"Quantity of propionylcarnitine produced, compared with the other odd-carbon fatty acids",[8],consistently greater quantities of propionylcarnitine
